Read-outs that look alike come from different tables or passages of the source.
What was measured:
[1] = system: A-427; assay: MTT test, cytotoxic activity on non-clonogenic cell lines; type: cell-based; conditions: Homo sapiens, 10^−5 M, mean value
In short: (§1)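 Human cancer lines seeded at 20 000–50 000 cells/ml, allowed 24 h to attach, then exposed to compounds at 10^−5 to 10^−10 M versus solvent control.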

[2] = system: A549; assay: as above; type: cell-based; conditions: Homo sapiens, 10^−5 M, mean value
In short: as §1

[3] = system: HCT-15; assay: as above; type: cell-based; conditions: Homo sapiens, mean value
In short: as §1

[4] = system: LoVo; assay: as above; type: cell-based; conditions: Homo sapiens, 10^−5 M, mean value
In short: as §1

[5] = system: MCF7; assay: as above; type: cell-based; conditions: Homo sapiens, 10^−5 M, mean value
In short: as §1

[6] = system: PC-3; assay: as above; type: cell-based; conditions: Homo sapiens, 10^−5 M, mean value
In short: as §1

[7] = system: T-47D; assay: as above; type: cell-based; conditions: Homo sapiens, T47D, 10^−5 M, mean value
In short: as §1

[8] = system: U-373MG; assay: as above; type: cell-based; conditions: Homo sapiens, U373 MG, 10^−5 M, mean value
In short: as §1

[9] = system: U-87MG; assay: as above; type: cell-based; conditions: Homo sapiens, 10^−5 M, mean value
In short: as §1

[10] = system: SW1088; assay: as above; type: cell-based; conditions: Homo sapiens, 10^−5 M, mean value
In short: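 Human astrocytoma SW1088 cells seeded, grown 24 h at 37° C, 5% CO2, then exposed to compounds at 10^−5 to 10^−10 M versus solvent control. Viability by MTT reduction: 3 h MTT incubation, formazan dissolved in DMSO and read by spectrophotometry.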

[11] = system: J82; assay: as above; type: cell-based; conditions: Homo sapiens, 10^−5 M, mean value
In short: (§2)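 Human bladder cancer lines were seeded at 20 000–50 000 cells/ml and, after 24 h, exposed to compounds at 10^−5 to 10^−10 M against a solvent control. Formazan was dissolved in DMSO and viability was read by spectrophotometric optical density.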

[12] = system: T24; assay: as above; type: cell-based; conditions: Homo sapiens, T-24, 10^−5 M, mean value
In short: as §2

[13] = Determination of the maximum tolerated dose (MTD); conditions: B6D2F1/Jico, mouse, in vivo, ip; single intraperitoneal administration, doses 2.5 to 160 mg/kg, survival over 14 days
In short: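 Mice were 4- to 6-week-old B6D2F1/Jico. They received a single intraperitoneal dose of 2.5 to 160 mg/kg, and survival and body weight were followed for 14 days. MTD is given in mg/kg and is capped at 160 mg/kg by default.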

[14] = 72 hours of incubation, control condition = 100%, read-out: mean optical density as percentage of control, A-427
[15] = 72 hours of incubation, control condition = 100%, read-out: mean optical density as percentage of control, A549
[16] = 10^−5 M, 72 hours of incubation, control condition = 100%, read-out: mean optical density as percentage of control, HCT-16
[17] = 72 hours of incubation, control condition = 100%, read-out: mean optical density as percentage of control, LoVo
[18] = 72 hours of incubation, control condition = 100%, read-out: mean optical density as percentage of control, MCF7
[19] = 72 hours of incubation, control condition = 100%, read-out: mean optical density as percentage of control, PC-3
[20] = 72 hours of incubation, control condition = 100%, read-out: mean optical density as percentage of control, T-47D
[21] = 72 hours of incubation, control condition = 100%, read-out: mean optical density as percentage of control, U-373MG
[22] = U-87 MG, 72 hours of incubation, control condition = 100%, read-out: mean optical density as percentage of control, U-87MG
[23] = 72 hours of incubation, control condition = 100%, read-out: mean optical density as percentage of control, SW1088
[24] = 72 hours of incubation, control condition = 100%, read-out: mean optical density as percentage of control, J82
[25] = 72 hours of incubation, control condition = 100%, read-out: mean optical density as percentage of control, T24
[26] = 72 hours incubation, MTT, read-out: mean optical density, expressed as percentage relative to the mean optical density under the control condition (100%)
[27] = HCT-16, 10^−5 M, 72 hours incubation, MTT, read-out: mean optical density, expressed as percentage relative to the mean optical density under the control condition (100%)
[28] = T-47D, 72 hours incubation, MTT, read-out: mean optical density, expressed as percentage relative to the mean optical density under the control condition (100%)
[29] = U-373MG, 72 hours incubation, MTT, read-out: mean optical density, expressed as percentage relative to the mean optical density under the control condition (100%)
[30] = U-87MG, 72 hours incubation, MTT, read-out: mean optical density, expressed as percentage relative to the mean optical density under the control condition (100%)
[31] = T24, 72 hours incubation, MTT, read-out: mean optical density, expressed as percentage relative to the mean optical density under the control condition (100%)

SMILES | viability at 10 µM [1, 14] | viability at 10 µM [2, 15] | viability at 10 µM [3, 16] | viability at 10 µM [4, 17] | viability at 10 µM [5, 18] | viability at 10 µM [6, 19] | viability at 10 µM [7, 20] | viability at 10 µM [8, 21] | viability at 10 µM [9, 22] | viability at 10 µM [10, 23] | viability at 10 µM [11, 24] | viability at 10 µM [12, 25] | MTD at 14 day [13] | viability at 10 µM [1, 26] | viability at 10 µM [2, 26] | viability at 10 µM [3, 27] | viability at 10 µM [4, 26] | viability at 10 µM [5, 26] | viability at 10 µM [6, 26] | viability at 10 µM [7, 28] | other results
COc1ccc(-c2cn(CC#N)c3c(OC)ccc(OC)c3c2=O)cc1 [CRL8413, [5,8-Dimethoxy-3-(4-methoxyphenyl)-4-oxo-1,4-dihydro-1-quinolinyl]acetonitrile] | 73.3% | 48.7% | 65.9% | 85.6% | 67.2% | 63.4% | 112% | 66.4% | 56% | 83.7% | 88.4% | 71.8% | > 160 mg/kg | – | – | – | – | – | – | – | –
CCc1ccc(OC)c2c1c(=O)c(-c1ccc(OC)cc1)cn2C [CRL8414, 5-Ethyl-8-methoxy-3-(4-methoxyphenyl)-1-methyl-1,4-dihydro-4-quinolinone] | 82.2% | 71.8% | 83.4% | 84.2% | 104% | 94.3% | 96.2% | 81.7% | 81.2% | 94.4% | 110% | 97.5% | > 160 mg/kg | – | – | – | – | – | – | – | –
COc1ccc(-c2cn(CCCC#N)c3cc(OC)cc(OC)c3c2=O)cc1 [CRL8420, 4-[5,7-Dimethoxy-3-(4-methoxyphenyl)-4-oxo-1,4-dihydro-1-quinolinyl]butanenitrile] | 102% | 94.5% | 109% | 81.2% | 103% | 86% | 104% | 96.6% | 92.9% | 117% | 92.3% | 111% | > 160 mg/kg | – | – | – | – | – | – | – | –
COc1ccc(-c2cn(C)c3cc(OC)cc(NCc4ccccc4)c3c2=O)cc1 [CRL8424, 5-Benzylamino-7-methoxy-3-(4-methoxyphenyl)-1-methyl-1,4-dihydro-4-quinolinone] | 72.7% | 111% | 49.8% | 69.8% | 95.4% | 108% | 108% | 82.5% | 87.9% | 82.7% | 77.9% | 102% | > 160 mg/kg | – | – | – | – | – | – | – | –
COc1ccc(-c2cn(C)c3cc(OC)cc(N4CCCCC4)c3c2=O)cc1 [CRL8425, 7-Methoxy-3-(4-methoxyphenyl)-1-methyl-5-piperidino-1,4-dihydro-4-quinolinone] | 81.9% | 80.2% | 78.9% | 71% | 102% | 88.2% | 97.3% | 82.6% | 92.6% | 85.4% | 71.9% | 98.2% | > 160 mg/kg | – | – | – | – | – | – | – | –
COc1ccc(-c2cn(C)c3cc(OC)cc(N4CCCC4)c3c2=O)cc1 [CRL8434, 7-Methoxy-3-(4-methoxyphenyl)-1-methyl-5-pyrrolidino-1,4-dihydro-4-quinolinone] | 110% | 99% | 101% | 106% | 96.2% | 113% | 85.8% | 92.2% | 89.7% | 99.9% | 99.3% | 98.7% | > 160 mg/kg | – | – | – | – | – | – | – | –
COc1ccc(-c2cn(C)c3cc(OC)cc(N4CCOCC4)c3c2=O)cc1 [CRL8435, 7-Methoxy-3-(4-methoxyphenyl)-1-methyl-5-morpholino-1,4-dihydro-4-quinolinone] | 115% | 96.7% | 101% | 106% | 93.6% | 105% | 95.7% | 85% | 85% | 97.3% | 100% | 89.4% | > 160 mg/kg | – | – | – | – | – | – | – | –
COc1ccc(-c2cn(C)c3cc(OC)cc(N4CCN(C)CC4)c3c2=O)cc1 [CRL8436, 7-Methoxy-3-(4-methoxyphenyl)-1-methyl-5-(1-methyl-piperazino)-1,4-dihydro-4-quinolinone] | – | – | – | – | – | – | – | – | – | – | – | – | > 160 mg/kg | 109% | 101% | 101% | 108% | 96.4% | 99.9% | 89.4% | viability at 10 µM [8, 29]: 97.2%; viability at 10 µM [9, 30]: 97.3%; viability at 10 µM [10, 26]: 102%; viability at 10 µM [11, 26]: 101%; viability at 10 µM [12, 31]: 99.2%
CCN(CC)c1cc(OC)cc2c1c(=O)c(-c1ccc(OC)cc1)cn2C [CRL8437, 5-Diethylamino-7-methoxy-3-(4-methoxyphenyl)-1-methyl-1,4-dihydro-4-quinolinone] | – | – | – | – | – | – | – | – | – | – | – | – | > 160 mg/kg | 108% | 102% | 110% | 105% | 97.7% | 94.1% | 92.1% | viability at 10 µM [8, 29]: 93.2%; viability at 10 µM [9, 30]: 99.4%; viability at 10 µM [10, 26]: 99.7%; viability at 10 µM [11, 26]: 98.7%; viability at 10 µM [12, 31]: 93.1%
CC(=O)Oc1ccc(-c2cn(C)c3c(OC(C)=O)ccc(OC(C)=O)c3c2=O)cc1 [CRL8460, 5,8-Diacetoxy-3-[4-(acetoxy)phenyl]-1-methyl-1,4-dihydro-4-quinolmone acetate] | – | – | – | – | – | – | – | – | – | – | – | – | > 160 mg/kg | 24.9% | 43.1% | 53.7% | 25.5% | 35% | 35.2% | 56.2% | viability at 10 µM [8, 29]: 52.2%; viability at 10 µM [9, 30]: 71.5%; viability at 10 µM [10, 26]: 65.7%; viability at 10 µM [11, 26]: 45.7%; viability at 10 µM [12, 31]: 14.2%
COc1ccc(-c2cn(C)c3cc(OC)cc(N)c3c2=O)cc1 [CRL8461, 5-Amino-7-methoxy-3-(4-methoxyphenyl)-1-methyl-1,4-dihydro-4-quinolinone] | – | – | – | – | – | – | – | – | – | – | – | – | > 160 mg/kg | 90.5% | 99.7% | 88.5% | 92.7% | 68.2% | 91.9% | 51.9% | viability at 10 µM [8, 29]: 91.6%; viability at 10 µM [9, 30]: 77.2%; viability at 10 µM [10, 26]: 91.9%; viability at 10 µM [11, 26]: 94.9%; viability at 10 µM [12, 31]: 107%

Reference: patent US6645983B1, “Pharmaceutical compositions comprising 4-quinolones for treating cancers” (Laboratoire L. Lafon, priority 1999, dated 2003)
